One block for each compound: values may come before it.
Columns and labels:
[1] = molecular target: Serine/threonine-protein kinase pim-3 (Homo sapiens) (UniProt Q86V86); conditions: at 10 µM
[2] = molecular target: High affinity nerve growth factor receptor (Homo sapiens, UniProt P04629); conditions: at 10 µM
[3] = molecular target: Mast/stem cell growth factor receptor Kit (Homo sapiens, UniProt P10721); experiment: Selectivity interaction (Ambit KINOMEscan and KiNATiv profiling in Jurkat cells) EUB0000090b KIT; format: cell-based; conditions: at 1 µM
[4] = molecular target: Ribosomal protein S6 kinase alpha-2 (Homo sapiens) (UniProt Q15349); experiment: Selectivity interaction (Millipore kinase profiler) EUB0000124b RPS6KA2; conditions: at 10 µM
[5] = molecular target: Fibroblast growth factor receptor 2 (Homo sapiens) (UniProt P21802); experiment: Selectivity interaction (SelectScreen profiling (Invitrogen)) EUB0000607a FGFR2; conditions: at 2 µM
[6] = molecular target: Citron Rho-interacting kinase (Homo sapiens) (UniProt O14578); experiment: Selectivity interaction (KinomeScan (DiscoverX)) EUB0000607a CIT; conditions: at 10 µM
[7] = molecular target: Ribosomal protein S6 kinase alpha-3 (Homo sapiens, UniProt P51812); experiment: Selectivity interaction (SelectScreen profiling (Invitrogen)) EUB0000607a RPS6KA3; conditions: at 2 µM
[8] = molecular target: Ribosomal protein S6 kinase beta-2 (Homo sapiens) (UniProt Q9UBS0); experiment: Selectivity interaction (ActivX KiNativ screen (ex vivo kinase selectivity in human PBMCs)) EUB0001619a RPS6KB2; format: cell-based; conditions: PBMC, at 1 µM
[9] = molecular target: Vascular endothelial growth factor receptor 2 (Homo sapiens, UniProt P35968); experiment: Selectivity interaction (KinomeScan (DiscoverX)) EUB0001619a KDR; conditions: at 1 µM
[10] = molecular target: T1, Non-receptor tyrosine-protein kinase TNK1 (Homo sapiens) (UniProt Q13470); experiment: Selectivity interaction (KinomeScan (DiscoverX)) EUB0001619a TNK1; conditions: at 1 µM
T1 sequence (whole entry): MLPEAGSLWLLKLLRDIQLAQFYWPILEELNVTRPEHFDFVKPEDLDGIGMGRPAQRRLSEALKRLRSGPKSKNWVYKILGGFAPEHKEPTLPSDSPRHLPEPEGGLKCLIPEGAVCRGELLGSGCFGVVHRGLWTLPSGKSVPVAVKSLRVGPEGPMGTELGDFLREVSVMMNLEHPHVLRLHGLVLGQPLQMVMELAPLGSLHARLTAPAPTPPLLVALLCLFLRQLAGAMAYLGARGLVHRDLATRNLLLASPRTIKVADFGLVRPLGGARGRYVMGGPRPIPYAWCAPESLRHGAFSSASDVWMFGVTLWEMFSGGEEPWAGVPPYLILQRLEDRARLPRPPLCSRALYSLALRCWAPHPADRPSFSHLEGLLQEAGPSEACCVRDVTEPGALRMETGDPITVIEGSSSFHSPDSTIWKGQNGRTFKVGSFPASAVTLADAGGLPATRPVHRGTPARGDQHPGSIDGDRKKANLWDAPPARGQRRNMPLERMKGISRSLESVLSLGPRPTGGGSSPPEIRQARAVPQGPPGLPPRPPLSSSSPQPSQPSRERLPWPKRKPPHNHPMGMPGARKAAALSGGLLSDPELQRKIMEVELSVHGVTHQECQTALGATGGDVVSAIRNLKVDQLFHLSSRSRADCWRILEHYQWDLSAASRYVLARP

[11] = molecular target: T2, Phosphatidylinositol 5-phosphate 4-kinase type-2 gamma (Homo sapiens) (UniProt Q8TBX8); experiment: Selectivity interaction (KinomeScan (DiscoverX)) EUB0000045b PIP4K2C
T2 sequence (whole entry): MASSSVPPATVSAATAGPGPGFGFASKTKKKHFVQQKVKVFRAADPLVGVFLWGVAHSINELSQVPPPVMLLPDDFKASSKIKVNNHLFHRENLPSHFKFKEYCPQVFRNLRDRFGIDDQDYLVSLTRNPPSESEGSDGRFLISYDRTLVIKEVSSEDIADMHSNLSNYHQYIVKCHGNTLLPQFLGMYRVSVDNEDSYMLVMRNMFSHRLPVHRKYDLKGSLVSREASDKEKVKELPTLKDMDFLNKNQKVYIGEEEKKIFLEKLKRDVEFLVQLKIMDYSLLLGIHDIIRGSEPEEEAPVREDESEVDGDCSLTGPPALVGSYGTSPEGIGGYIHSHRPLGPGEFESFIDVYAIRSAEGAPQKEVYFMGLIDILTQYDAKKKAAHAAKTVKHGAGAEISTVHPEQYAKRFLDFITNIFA

[12] = molecular target: 5'-AMP-activated protein kinase catalytic subunit alpha-1 (Homo sapiens, UniProt Q13131); experiment: Selectivity interaction (Kinase panel (Invitrogen)) EUB0000639a PRKAA1; conditions: at 200 nM
[13] = molecular target: Mitogen-activated protein kinase 8 (Homo sapiens, UniProt P45983); experiment: Selectivity interaction (ActivX KiNativ screen (kinase selectivity in THP-1 cell lysates)) EUB0000639a MAPK8; format: subcellular; conditions: lysate
[14] = molecular target: T3, Eukaryotic elongation factor 2 kinase (Homo sapiens) (UniProt O00418); experiment: Selectivity interaction (Kinase panel (Invitrogen)) EUB0000639a EEF2K; conditions: at 200 nM
T3 sequence (whole entry): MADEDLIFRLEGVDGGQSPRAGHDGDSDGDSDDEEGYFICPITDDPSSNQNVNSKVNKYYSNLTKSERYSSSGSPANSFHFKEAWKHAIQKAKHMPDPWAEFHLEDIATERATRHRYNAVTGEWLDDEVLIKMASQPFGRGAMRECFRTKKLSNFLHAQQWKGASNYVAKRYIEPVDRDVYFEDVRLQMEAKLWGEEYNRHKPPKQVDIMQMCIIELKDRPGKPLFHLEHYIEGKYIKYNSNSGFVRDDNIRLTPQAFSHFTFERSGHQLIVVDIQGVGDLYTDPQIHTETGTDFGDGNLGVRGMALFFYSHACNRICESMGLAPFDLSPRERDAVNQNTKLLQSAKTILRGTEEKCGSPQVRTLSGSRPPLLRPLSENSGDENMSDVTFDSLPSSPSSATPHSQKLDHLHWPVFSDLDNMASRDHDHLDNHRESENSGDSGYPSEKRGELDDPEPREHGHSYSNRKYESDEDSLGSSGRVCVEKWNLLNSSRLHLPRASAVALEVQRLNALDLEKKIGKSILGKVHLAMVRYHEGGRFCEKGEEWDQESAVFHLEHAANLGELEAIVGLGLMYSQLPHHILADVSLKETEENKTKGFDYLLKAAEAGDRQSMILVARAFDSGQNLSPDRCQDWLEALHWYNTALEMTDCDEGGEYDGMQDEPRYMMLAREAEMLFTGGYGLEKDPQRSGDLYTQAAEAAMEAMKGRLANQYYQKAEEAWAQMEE

Sequence of Mitogen-activated protein kinase 8 (P45983 whole entry): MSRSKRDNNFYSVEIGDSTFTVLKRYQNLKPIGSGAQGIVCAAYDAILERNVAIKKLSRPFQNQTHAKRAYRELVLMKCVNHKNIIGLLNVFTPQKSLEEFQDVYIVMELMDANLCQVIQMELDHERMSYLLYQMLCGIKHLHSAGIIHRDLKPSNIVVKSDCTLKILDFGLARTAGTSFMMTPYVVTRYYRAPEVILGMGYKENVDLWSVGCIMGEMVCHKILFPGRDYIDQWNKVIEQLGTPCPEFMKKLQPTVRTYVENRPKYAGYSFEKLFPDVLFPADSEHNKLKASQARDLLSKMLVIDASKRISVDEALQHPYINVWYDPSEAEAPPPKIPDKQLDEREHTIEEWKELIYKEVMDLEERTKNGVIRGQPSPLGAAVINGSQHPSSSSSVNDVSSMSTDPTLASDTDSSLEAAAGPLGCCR
Sequence of Fibroblast growth factor receptor 2 (Homo sapiens) (P21802 22-821 limits assumed): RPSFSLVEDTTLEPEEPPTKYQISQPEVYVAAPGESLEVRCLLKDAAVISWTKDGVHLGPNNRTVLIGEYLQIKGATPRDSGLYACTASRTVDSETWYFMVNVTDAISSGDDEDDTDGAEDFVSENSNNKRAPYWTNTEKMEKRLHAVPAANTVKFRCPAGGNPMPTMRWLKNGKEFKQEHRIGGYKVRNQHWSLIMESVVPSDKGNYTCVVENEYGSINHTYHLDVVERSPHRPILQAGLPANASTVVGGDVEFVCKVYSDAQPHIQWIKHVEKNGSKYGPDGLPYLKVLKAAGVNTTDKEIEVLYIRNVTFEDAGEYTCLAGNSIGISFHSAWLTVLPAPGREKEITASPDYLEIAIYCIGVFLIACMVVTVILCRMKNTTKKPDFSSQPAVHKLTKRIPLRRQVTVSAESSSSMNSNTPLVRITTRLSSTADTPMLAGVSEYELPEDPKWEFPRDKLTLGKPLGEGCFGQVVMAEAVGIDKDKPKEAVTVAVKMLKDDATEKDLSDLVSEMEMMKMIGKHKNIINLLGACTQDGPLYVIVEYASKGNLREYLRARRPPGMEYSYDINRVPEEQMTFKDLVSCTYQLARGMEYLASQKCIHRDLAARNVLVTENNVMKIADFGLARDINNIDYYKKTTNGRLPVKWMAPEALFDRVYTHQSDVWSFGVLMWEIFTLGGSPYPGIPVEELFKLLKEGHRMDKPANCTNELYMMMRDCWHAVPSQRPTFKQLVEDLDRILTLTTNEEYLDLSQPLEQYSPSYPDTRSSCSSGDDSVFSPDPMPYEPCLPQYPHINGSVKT
Sequence of 5'-AMP-activated protein kinase catalytic subunit alpha-1 (Q13131 whole entry, looked up): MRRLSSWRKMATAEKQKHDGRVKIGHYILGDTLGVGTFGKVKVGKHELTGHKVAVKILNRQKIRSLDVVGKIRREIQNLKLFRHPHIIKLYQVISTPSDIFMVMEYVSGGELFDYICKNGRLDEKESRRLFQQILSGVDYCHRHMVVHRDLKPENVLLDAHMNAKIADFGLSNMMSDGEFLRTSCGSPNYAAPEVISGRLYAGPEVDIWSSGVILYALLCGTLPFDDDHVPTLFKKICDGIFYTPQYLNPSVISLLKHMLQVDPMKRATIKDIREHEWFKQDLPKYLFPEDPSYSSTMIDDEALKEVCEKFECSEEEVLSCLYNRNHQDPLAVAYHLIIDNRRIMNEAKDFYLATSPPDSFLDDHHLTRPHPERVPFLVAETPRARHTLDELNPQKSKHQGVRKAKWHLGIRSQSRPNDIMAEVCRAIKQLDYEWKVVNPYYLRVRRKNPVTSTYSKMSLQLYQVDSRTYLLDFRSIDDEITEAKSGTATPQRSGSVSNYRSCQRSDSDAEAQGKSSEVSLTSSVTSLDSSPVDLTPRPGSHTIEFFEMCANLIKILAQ
Sequence of Mast/stem cell growth factor receptor Kit (P10721 whole entry): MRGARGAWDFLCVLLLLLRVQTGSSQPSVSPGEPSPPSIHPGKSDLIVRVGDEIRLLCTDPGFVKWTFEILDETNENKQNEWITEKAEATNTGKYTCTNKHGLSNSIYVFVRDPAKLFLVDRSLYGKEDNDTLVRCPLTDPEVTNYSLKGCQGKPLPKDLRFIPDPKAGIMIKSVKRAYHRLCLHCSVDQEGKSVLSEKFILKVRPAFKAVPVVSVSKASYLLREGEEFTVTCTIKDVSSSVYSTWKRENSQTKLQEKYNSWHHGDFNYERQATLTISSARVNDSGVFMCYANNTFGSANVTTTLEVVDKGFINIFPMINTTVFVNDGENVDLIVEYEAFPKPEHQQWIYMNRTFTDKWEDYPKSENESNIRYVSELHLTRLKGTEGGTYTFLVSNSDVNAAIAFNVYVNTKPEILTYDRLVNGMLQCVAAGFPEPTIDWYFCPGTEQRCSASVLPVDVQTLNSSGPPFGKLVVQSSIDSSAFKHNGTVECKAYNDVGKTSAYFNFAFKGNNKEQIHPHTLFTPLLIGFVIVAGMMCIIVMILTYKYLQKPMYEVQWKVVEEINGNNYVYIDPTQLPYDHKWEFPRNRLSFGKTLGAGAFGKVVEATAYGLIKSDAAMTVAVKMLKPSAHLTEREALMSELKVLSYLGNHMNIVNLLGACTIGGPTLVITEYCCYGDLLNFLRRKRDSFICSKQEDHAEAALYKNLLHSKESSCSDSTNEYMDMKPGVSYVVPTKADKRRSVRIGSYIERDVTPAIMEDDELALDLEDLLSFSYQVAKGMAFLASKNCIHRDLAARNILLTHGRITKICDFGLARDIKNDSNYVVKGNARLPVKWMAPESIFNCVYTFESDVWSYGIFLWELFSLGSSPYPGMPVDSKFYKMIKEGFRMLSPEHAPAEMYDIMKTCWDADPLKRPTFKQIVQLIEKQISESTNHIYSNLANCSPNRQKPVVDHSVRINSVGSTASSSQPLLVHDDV
Sequence of Ribosomal protein S6 kinase alpha-2 (Homo sapiens) (Q15349 whole entry): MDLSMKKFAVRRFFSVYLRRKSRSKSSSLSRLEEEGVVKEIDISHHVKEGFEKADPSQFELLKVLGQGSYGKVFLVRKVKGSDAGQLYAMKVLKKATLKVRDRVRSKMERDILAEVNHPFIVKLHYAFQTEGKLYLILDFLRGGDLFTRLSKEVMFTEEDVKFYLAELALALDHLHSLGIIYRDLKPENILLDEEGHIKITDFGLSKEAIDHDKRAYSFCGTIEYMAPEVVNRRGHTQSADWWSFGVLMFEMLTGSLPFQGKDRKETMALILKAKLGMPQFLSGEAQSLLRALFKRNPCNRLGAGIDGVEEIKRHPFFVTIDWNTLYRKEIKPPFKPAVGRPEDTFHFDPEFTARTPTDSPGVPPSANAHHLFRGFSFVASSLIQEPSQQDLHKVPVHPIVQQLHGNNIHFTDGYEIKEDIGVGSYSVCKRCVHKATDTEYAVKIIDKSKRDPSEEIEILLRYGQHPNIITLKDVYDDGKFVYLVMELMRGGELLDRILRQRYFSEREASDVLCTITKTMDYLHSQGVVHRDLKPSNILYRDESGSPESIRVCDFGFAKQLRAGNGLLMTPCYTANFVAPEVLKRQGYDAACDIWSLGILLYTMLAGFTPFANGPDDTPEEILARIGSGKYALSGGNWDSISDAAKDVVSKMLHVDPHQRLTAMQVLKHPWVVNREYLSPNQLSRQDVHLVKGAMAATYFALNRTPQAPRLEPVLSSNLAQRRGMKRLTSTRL
Sequence of Vascular endothelial growth factor receptor 2 (P35968 whole entry): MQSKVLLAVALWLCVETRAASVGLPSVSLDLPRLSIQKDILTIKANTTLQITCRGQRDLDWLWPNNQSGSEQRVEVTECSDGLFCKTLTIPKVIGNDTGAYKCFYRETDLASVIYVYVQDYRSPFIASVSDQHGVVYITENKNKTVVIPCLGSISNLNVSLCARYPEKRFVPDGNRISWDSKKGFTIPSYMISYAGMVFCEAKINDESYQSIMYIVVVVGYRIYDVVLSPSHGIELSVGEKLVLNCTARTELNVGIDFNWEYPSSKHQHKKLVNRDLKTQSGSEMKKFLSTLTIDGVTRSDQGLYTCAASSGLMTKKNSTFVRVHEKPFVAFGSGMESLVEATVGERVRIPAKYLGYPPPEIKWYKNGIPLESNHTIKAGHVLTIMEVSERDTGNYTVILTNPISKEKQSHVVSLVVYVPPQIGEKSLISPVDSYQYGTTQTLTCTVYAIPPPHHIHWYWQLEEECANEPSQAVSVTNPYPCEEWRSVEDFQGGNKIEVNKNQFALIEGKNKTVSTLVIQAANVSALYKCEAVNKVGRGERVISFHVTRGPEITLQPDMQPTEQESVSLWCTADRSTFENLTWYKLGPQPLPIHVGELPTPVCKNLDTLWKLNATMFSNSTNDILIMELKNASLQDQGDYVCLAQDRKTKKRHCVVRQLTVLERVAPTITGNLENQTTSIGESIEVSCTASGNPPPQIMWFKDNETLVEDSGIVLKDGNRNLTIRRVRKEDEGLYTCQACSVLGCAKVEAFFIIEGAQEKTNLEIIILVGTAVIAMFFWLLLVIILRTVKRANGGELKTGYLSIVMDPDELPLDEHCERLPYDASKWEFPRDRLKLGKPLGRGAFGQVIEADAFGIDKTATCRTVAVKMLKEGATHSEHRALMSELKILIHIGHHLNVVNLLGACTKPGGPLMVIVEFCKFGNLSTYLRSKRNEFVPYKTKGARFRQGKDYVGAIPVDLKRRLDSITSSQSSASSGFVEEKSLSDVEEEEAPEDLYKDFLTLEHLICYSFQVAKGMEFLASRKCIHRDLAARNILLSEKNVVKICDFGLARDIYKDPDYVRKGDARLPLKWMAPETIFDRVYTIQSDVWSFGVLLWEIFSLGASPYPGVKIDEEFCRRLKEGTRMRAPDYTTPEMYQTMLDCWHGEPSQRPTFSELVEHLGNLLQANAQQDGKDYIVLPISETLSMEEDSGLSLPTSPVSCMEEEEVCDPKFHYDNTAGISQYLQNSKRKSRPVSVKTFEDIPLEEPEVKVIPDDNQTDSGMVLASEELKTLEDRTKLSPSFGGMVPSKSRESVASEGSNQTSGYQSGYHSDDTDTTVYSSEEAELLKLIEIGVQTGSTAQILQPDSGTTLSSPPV

% of control [1]: 100%
% of control [2]: 100%
SMILES: CCN(CC)CCCCNc1ncc2cc(-c3cc(OC)cc(OC)c3)c(NC(=O)NC(C)(C)C)nc2n1

SMILES: CN(C)C/C=C/C(=O)Nc1ccc(C(=O)N2CCCC(Nc3ncc(Cl)c(-c4c[nH]c5ccccc45)n3)C2)cc1 (centres undefined)
% of control [3]: 93%

% of control [4]: 102%
SMILES: CC(=O)Nc1cccc(-n2c(=O)n(C3CC3)c(=O)c3c(Nc4ccc(I)cc4F)n(C)c(=O)c(C)c32)c1

SMILES: CNC(=O)Nc1ccc(-c2nc(N3CC4CCC(C3)O4)c3cnn(C4CCC5(CC4)OCCO5)c3n2)cc1
% of inhibition [5]: 4%
% of control [6]: 100%
% of inhibition [7]: -2%

SMILES: N#Cc1cccc(-c2c[nH]c3ncnc(N4CCOCC4)c23)c1
% of inhibition [8]: -10%
% of control [9]: 62%
% of control [10]: 32%

SMILES: C=CC(=O)Nc1cc(-n2c(=O)ccc3cnc4ccc(-c5ccc(NS(C)(=O)=O)cc5)cc4c32)ccc1C
% of control ([11]; at 1 µM): 5.6%
% of control ([11]; at 10 µM): 3.9%

% of inhibition [12]: 11%
% of inhibition ([13]; at 0.01 µM): 13.3%
% of inhibition ([13]; at 0.04 µM): -1.4%
% of inhibition ([13]; at 0.2 µM): 1.6%
% of inhibition ([13]; at 1 µM): 27.7%
% of inhibition ([13]; at 5 µM): 57.5%
% of inhibition [14]: 21.1%
SMILES: CC[C@@H]1[C@H](F)C(=O)N[C@@H]1COc1nccc2cc(C(N)=O)c(OC)cc12 [ZIMLOVISERTIB]
